Some results are limits rather than exact numbers.

The experiment has as its target T1, hP2X3 (human Purinergic P2X receptors subtype 3), clone B (Homo sapiens, UniProt P56373).
T1 sequence (P56373 1-397): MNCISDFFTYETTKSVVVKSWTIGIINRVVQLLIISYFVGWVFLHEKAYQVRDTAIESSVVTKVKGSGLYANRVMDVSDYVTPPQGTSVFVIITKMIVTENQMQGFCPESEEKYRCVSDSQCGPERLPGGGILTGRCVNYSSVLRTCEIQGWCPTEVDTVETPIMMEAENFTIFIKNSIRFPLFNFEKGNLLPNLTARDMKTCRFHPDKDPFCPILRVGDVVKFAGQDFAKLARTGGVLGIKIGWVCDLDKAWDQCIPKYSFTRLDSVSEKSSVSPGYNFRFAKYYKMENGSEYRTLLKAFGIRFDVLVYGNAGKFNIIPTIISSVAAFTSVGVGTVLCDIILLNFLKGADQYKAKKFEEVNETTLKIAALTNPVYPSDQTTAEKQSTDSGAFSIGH
In words: hP2X3 FLIPR calcium (Fluo-4) antagonist assay, clone B. To be noted: Human P2X3 FLIPR Clone B IC50 (nM), RLE cells expressing hP2X3 clone B (NM_002559); agonist 500 nM α,β-methylene-ATP.
`CC(C)N1Cc2c(NCc3cnc4ccccc4c3)nc(NCCS(C)(=O)=O)nc2C1=O` [Example 215, 6-isopropyl-2-(2-methylsulfonylethylamino)-4-(3-quinolylmethylamino)-5H-pyrrolo[3,4-d]pyrimidin-7-one]: the IC50 was determined as 2000 nM.

For `CC(=O)N1CCN(c2nc3c(c(N(Cc4cc5ccccc5cn4)CC(F)F)n2)CN(C(C)C)C3=O)CC1` [Example 256, 2-(4-acetylpiperazin-1-yl)-4-((2,2-difluoroethyl)(isoquinolin-3-ylmethyl)amino)-6-isopropyl-5H-pyrrolo[3,4-d]pyrimidin-7(6H)-one], the IC50 was 46 nM. Consider `CCOc1ccc(C(C)N(C)c2nc(N3CCN(C(C)=O)CC3)nc3c2CN(C(C)C)C3=O)cc1` (stereo not drawn) [Example 157, 2-(4-acetylpiperazin-1-yl)-4-((1-(4-ethoxyphenyl)ethyl)(methyl)amino)-6-isopropyl-5H-pyrrolo[3,4-d]pyrimidin-7(6H)-one], for which the IC50 was 390 nM. As for `CC(=O)N1CCN(c2nc(NC(C)(C)Cc3ccccc3C)c3c(n2)C(=O)N(C(C)C)C3)CC1` [Example 197, 2-(4-acetylpiperazin-1-yl)-6-isopropyl-4-(2-methyl-1-o-tolylpropan-2-ylamino)-5H-pyrrolo[3,4-d]pyrimidin-7(6H)-one], the IC50 came out at 1900 nM. For `CC(C)N1Cc2c(NCc3cnc4ccccc4c3)nc(N3CCN(C(=O)N(C)C)CC3)nc2C1=O` [Example 221, N,N-dimethyl-4-{6-(1-methylethyl)-7-oxo-4-[(quinolin-3-ylmethyl)amino]-6,7-dihydro-5H-pyrrolo[3,4-d]pyrimidin-2-yl}piperazine-1-carboxamide], the IC50 was determined as 5800 nM. Consider `CC(=O)N1CCN(c2nc(N[C@@H](C)c3ccc4ncccc4c3)c3c(n2)C(=O)N(C(C)C)C3)CC1` [Example 244, (S)-2-(4-acetylpiperazin-1-yl)-6-isopropyl-4-(1-(quinolin-6-yl)ethylamino)-5H-pyrrolo[3,4-d]pyrimidin-7(6H)-one], for which the IC50 was found to be 6500 nM. `CC(=O)N1CCN(c2nc(NCc3ccc(-c4ccccc4)nc3)c3c(n2)C(=O)N(C(C)C)C3)CC1` [Example 228, 2-(4-acetylpiperazin-1-yl)-6-isopropyl-4-((6-phenylpyridin-3-yl)methylamino)-5H-pyrrolo[3,4-d]pyrimidin-7(6H)-one]: the IC50 was 8800 nM. `CC(=O)N1CCN(c2nc(NC(C)c3ccc(C(C)(C)C#N)c(F)c3)c3c(n2)C(=O)N(C(C)C)C3)CC1` (stereo not drawn) [Example 163, 2-(4-(1-(2-(4-acetylpiperazin-1-yl)-6-isopropyl-7-oxo-6,7-dihydro-5H-pyrrolo[3,4-d]pyrimidin-4-ylamino)ethyl)-2-fluorophenyl)-2-methylpropanenitrile]: the IC50 was 1700 nM.

As to `CC(=O)N1CCN(c2nc(NC(C)c3ccc(C(C)C)cc3)c3c(n2)C(=O)N(C(C)C)C3)CC1` (stereo not drawn) [Example 40, 2-(4-acetylpiperazin-1-yl)-6-isopropyl-4-{[1-(4-isopropylphenyl)ethyl]amino}-5,6-dihydro-7H-pyrrolo[3,4-d]pyrimidin-7-one], the IC50 was 310 nM. As for `CC(=O)N1CCN(c2nc3c(c(N4CCCC4c4ccc(N(C)C)cc4)n2)CN(C(C)C)C3=O)CC1` (stereo not drawn) [Example 267, 4-(4-acetylpiperazin-1-yl)-2-[2-(4-dimethylaminophenyl)pyrrolidin-1-yl]-8-propan-2-yl-3,5,8-triazabicyclo[4.3.0]nona-1,3,5-trien-7-one], the IC50 amounted to 480 nM. For the molecule `CC(=O)N1CCN(c2nc3c(c(N4CCCC4c4ccc(Cl)cc4)n2)CN(C(C)C)C3=O)CC1` (stereo not drawn) [Example 52, 2-(4-acetylpiperazin-1-yl)-4-[2-(4-chlorophenyl)pyrrolidin-1-yl]-6-isopropyl-5,6-dihydro-7H-pyrrolo[3,4-d]pyrimidin-7-one], the 50% inhibitory concentration (IC50) turned out to be 720 nM.

As to `CC(C)N1Cc2c(NC(C)(C)Cc3ccc(Cl)cc3)nc(N3CCN(C(=O)C(C)(C)C)CC3)nc2C1=O` [Example 125, 4-{[2-(4-chlorophenyl)-1,1-dimethylethyl]amino}-2-[4-(2,2-dimethylpropanoyl)piperazin-1-yl]-6-isopropyl-5,6-dihydro-7H-pyrrolo[3,4-d]pyrimidin-7-one], the IC50 stood at 3800 nM.

For the molecule `CCC(C)N1Cc2c(NCc3cc4ccccc4cn3)nc(N3CCN(C(C)=O)CC3)nc2C1=O` (single isomer, unassigned; (+)) [Example 310, (+)-2-(4-acetylpiperazin-1-yl)-4-(3-isoquinolylmethylamino)-6-sec-butyl-5H-pyrrolo[3,4-d]pyrimidin-7-one], the IC50 was found to be 29 nM. `CC(=O)N(Cc1cc2ccccc2cn1)c1nc(N2CCN(C(C)=O)[C@@H](C)C2)nc2c1CN(C(C)C)C2=O` [Example 325, (S)—N-(2-(4-acetyl-3-methylpiperazin-1-yl)-6-isopropyl-7-oxo-6,7-dihydro-5H-pyrrolo[3,4-d]pyrimidin-4-yl)-N-(isoquinolin-3-ylmethyl)acetamide]: the IC50 was determined as 380 nM. As to `CC(C)N1Cc2c(NCc3cnc4ccccc4c3)nc(N(C)C)nc2C1=O` [Example 220, 2-(dimethylamino)-6-(1-methylethyl)-4-[(quinolin-3-ylmethyl)amino]-5,6-dihydro-7H-pyrrolo[3,4-d]pyrimidin-7-one], the IC50 came to 9600 nM. As to `COCC(C)N1Cc2c(NC(C)(C)Cc3ccc(F)cc3)nc(N3CCN(C(C)=O)CC3)nc2C1=O` (stereo not drawn) [Example 314, 2-(4-acetylpiperazin-1-yl)-4-(1-(4-fluorophenyl)-2-methylpropan-2-ylamino)-6-(1-methoxypropan-2-yl)-5H-pyrrolo[3,4-d]pyrimidin-7(6H)-one], the IC50 was 670 nM. For `CC(=O)N1CCN(c2nc(NCC3OCCc4ccccc43)c3c(n2)C(=O)N(C(C)C)C3)CC1` (stereo not drawn) [Example 205, 2-(4-acetylpiperazin-1-yl)-4-(isochoman-1-ylmethylamino)-6-isopropyl-5H-pyrrolo[3,4-d]pyrimidin-7(6H)-one], the 50% inhibitory concentration (IC50) is 5300 nM. `CC(=O)N1CCN(c2nc(NCc3noc(C4CCC4)n3)c3c(n2)C(=O)N(C(C)C)C3)CC1` [Example 278, 4-(4-acetylpiperazin-1-yl)-2-[(5-cyclobutyl-1,2,4-oxadiazol-3-yl)methylamino]-8-propan-2-yl-3,5,8-triazabicyclo[4.3.0]nona-1,3,5-trien-7-one]: the IC50 was determined as 750 nM. Consider `CC(C)C(=O)N1CCN(c2nc(NC(C)(C)Cc3ccc(Cl)cc3)c3c(n2)C(=O)N(C(C)C)C3)CC1` [Example 124, 4-{[2-(4-chlorophenyl)-1,1-dimethylethyl]amino}-2-(4-isobutyrylpiperazin-1-yl)-6-isopropyl-5,6-dihydro-7H-pyrrolo[3,4-d]pyrimidin-7-one], for which the IC50 came out at 3000 nM. On to `CC(C)N1Cc2c(NCc3cnc4ccccc4c3)nc(N3CCN4CCCC4C3)nc2C1=O` (stereo in doubt) [Example 141, (R)-2-(Hexahydro-pyrrolo[1,2-a]pyrazin-2-yl)-6-isopropyl-4-[(quinolin-3-ylmethyl)-amino]-5,6-dihydro-pyrrolo[3,4-d]pyrimidin-7-one], for which the IC50 is 7600 nM.

As for `O=C1c2nc(N3CCOCC3)nc(NC(c3ccccc3)c3ccccc3)c2CN1C1CCCC1` [Example 75, 4-(Benzhydryl-amino)-6-cyclopentyl-2-morpholin-4-yl-5,6-dihydro-pyrrolo[3,4-d]pyrimidin-7-one], the IC50 is greater than 30000 nM. With `CC(=O)N1CCN(c2nc(NC(C)(C)Cc3ccc(F)cc3)c3c(n2)C(=O)N(Cc2ccccc2Cl)C3)CC1` [Example 315, 2-(4-acetylpiperazin-1-yl)-6-(2-chlorobenzyl)-4-(1-(4-fluorophenyl)-2-methylpropan-2-ylamino)-5H-pyrrolo[3,4-d]pyrimidin-7(6H)-one], the IC50 came out at 3000 nM. Consider `CCC(Nc1nc(N2CCN(C(C)=O)CC2)nc2c1CN(C(C)C)C2=O)c1ccc(C)cc1` (stereo not drawn) [Example 36, 2-(4-acetylpiperazin-1-yl)-6-isopropyl-4-{[1-(4-methylphenyl)propyl]amino}-5,6-dihydro-7H-pyrrolo[3,4-d]pyrimidin-7-one], for which the IC50 is 1800 nM. Take `CC(=O)N1CCN(c2nc3c(c(N4CCOC(C)(c5ccc(Cl)cc5)C4)n2)CN(C(C)C)C3=O)CC1` (stereo not drawn) [Example 123, 2-(4-acetylpiperazin-1-yl)-4-[2-(4-chlorophenyl)-2-methylmorpholin-4-yl]-6-isopropyl-5,6-dihydro-7H-pyrrolo[3,4-d]pyrimidin-7-one]: the IC50 worked out at 9100 nM.

As to `CC(=O)N1CCN(c2nc(NCc3cnc4ccccc4c3)c3c(n2)C(=O)N(C(C)C)C3)C[C@@H]1C` [Example 327, (S)-2-(4-acetyl-3-methylpiperazin-1-yl)-6-isopropyl-4-(quinolin-3-ylmethylamino)-5H-pyrrolo[3,4-d]pyrimidin-7(6H)-one], the IC50 amounted to 91 nM. Next, `CC(=O)N1CCN(c2nc(N[C@H](C)c3ccc(OC(CF)CF)cc3)c3c(n2)C(=O)N(C(C)C)C3)CC1` [Example 250, (R)-2-(4-acetylpiperazin-1-yl)-4-(1-(4-(1,3-difluoropropan-2-yloxy)phenyl)ethylamino)-6-isopropyl-5H-pyrrolo[3,4-d]pyrimidin-7(6H)-one]: 430 nM; `CC(=O)N1CCCN(c2nc(NC(C)(C)Cc3ccc(Cl)cc3)c3c(n2)C(=O)N(C(C)C)C3)CC1` [Example 65, 2-(4-acetyl-1,4-diazepan-1-yl)-4-{[2-(4-chlorophenyl)-1,1-dimethylethyl]amino}-6-isopropyl-5,6-dihydro-7H-pyrrolo[3,4-d]pyrimidin-7-one]: 420 nM.

By IC50 is commonly meant the concentration that gives 50% inhibition.

Source of the values: patent publication US20090099195A1 (ASTRAZENECA AB, priority 2007, published 2009).
